36 compounds from patent US12617814B2, “Neuroactive steroids and methods of use thereof” (Sage Therapeutics, LLC, priority 2013, dated 2026) can be followed below.

Where only a bound is given, the exact number is not on record here.

In the experiment the target is NMDA receptor (GRIN1/GRIN2A) (Homo sapiens, UniProt Q05586+Q12879). Nature of the experiment: NMDA potentiation, two electrode voltage clamp (TEVC) of Xenopus oocytes expressing NMDA receptor. It counts as cell-based. As to conditions: 10 μM compound, 3 μM Glutamate and Glycine. Here is the method: NMDA potentiation was assessed using either whole cell patch clamp of mammalian cells which expressed NMDA receptors, or using two-electrode voltage clamp (TEVC) of Xenopus Laevis oocytes expressing NMDA receptors.
Chain of NMDA receptor (GRIN1/GRIN2A) (Q12879 23-1464, other chains not shown): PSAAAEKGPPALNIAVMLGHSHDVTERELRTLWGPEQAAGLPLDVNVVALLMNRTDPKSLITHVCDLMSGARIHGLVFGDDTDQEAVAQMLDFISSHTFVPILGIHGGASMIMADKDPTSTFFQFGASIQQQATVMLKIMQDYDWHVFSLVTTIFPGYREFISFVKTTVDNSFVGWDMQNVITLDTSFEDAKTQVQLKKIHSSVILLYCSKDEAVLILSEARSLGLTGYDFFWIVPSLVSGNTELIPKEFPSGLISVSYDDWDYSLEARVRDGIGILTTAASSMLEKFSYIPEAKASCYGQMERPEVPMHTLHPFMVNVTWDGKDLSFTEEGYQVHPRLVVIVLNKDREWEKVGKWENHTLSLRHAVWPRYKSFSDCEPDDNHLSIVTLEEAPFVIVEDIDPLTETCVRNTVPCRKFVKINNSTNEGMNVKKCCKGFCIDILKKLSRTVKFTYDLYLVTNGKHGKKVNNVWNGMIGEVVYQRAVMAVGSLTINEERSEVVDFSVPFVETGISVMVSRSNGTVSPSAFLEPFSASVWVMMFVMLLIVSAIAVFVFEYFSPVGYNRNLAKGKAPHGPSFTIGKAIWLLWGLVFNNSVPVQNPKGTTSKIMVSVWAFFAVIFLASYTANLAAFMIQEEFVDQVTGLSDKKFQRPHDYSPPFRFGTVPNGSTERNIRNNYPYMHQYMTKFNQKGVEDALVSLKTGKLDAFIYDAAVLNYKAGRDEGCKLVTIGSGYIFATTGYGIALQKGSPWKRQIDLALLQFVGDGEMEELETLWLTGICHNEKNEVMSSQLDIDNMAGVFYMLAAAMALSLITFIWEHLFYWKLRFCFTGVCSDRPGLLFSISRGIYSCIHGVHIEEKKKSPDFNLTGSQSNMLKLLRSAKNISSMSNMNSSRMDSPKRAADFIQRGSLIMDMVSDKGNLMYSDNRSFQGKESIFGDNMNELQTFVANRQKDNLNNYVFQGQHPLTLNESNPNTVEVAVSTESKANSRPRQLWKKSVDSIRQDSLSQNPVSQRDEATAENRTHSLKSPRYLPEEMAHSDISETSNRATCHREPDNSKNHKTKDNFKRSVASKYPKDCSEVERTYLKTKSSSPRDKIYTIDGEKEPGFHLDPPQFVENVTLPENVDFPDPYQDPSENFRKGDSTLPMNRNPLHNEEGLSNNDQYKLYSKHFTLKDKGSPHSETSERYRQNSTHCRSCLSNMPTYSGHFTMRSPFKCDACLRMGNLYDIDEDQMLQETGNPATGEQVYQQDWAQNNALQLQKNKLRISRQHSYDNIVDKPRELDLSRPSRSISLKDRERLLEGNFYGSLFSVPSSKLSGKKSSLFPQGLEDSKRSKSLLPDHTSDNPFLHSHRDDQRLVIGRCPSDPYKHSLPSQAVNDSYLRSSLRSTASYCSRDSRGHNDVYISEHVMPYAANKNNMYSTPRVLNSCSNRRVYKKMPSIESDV
The Two Electrode Voltage Clamp (TEVC) technique was used to investigate the effects of compounds (10 μM) on the NMDA receptor (GRIN1/GRIN2A) expressed in Xenopus oocytes. Glutamate/Glycine peak and steady-state currents were recorded from oocytes that expressed the NMDA receptor and the modulatory effects of the test items on these currents were investigated.
Ovaries were harvested from Xenopus Laevis females that had been deeply anesthetized by cooling at 4° C. and immersion in Tricaine methanesulfonate (MS-222 at a concentration of 150 mg/L) in sodium bicarbonate (300 mg/L). Once anesthetized the animal was decapitated and pithed following the rules of animal rights from the Geneva canton. A small piece of ovary was isolated for immediate preparation while the remaining part was placed at 4° C. in a sterile Barth solution containing in mM NaCl 88, KCl 1, NaHCO3 2.4, HEPES 10, MgSO4·7H2O 0.82, Ca(NO3)2·4H2O 0.33, CaCl2·6H2O 0.41, at pH 7.4, and supplemented with 20 μg/ml of kanamycin, 100 unit/ml penicillin and 100 μg/ml streptomycin. All recordings were performed at 18° C. and cells were super-fused with medium containing in mM: NaCl 82.5, KCl 2.5, HEPES 5, CaCl2·2H2O, ·6H2O 1, pH 7.4.
Oocytes were injected with either cDNAs encoding for the human GRIN1 and GRIN2A subunits, using a proprietary automated injection device (Hogg et al., J. Neurosci. Methods, (2008) 169: 65-75) and receptor expression was assessed using electrophysiology at least two days later. The ratio of cDNA injection for GRIN1 and GRIN2A was 1:1. Electrophysiological recordings were made using an automated process equipped with standard TEVC and data were captured and analyzed using a proprietary data acquisition and analysis software running under Matlab (Mathworks Inc.). The membrane potential of the oocytes was maintained at −80 mV throughout the experiments. To explore the effects of proprietary compounds, currents were evoked by applying 3 μM Glutamate and […] Glycine for 10 s. Oocytes were then washed for 90 s before being exposed to the test article at a concentration of 10 μM for 120 s. Following this, 3 μM Glutamate and […] Glycine were immediately reapplied for 10 s. Potentiation of both the peak current and the steady state current was assessed. For statistical analysis values were computed either with Excel (Microsoft) or Matlab (Mathworks Inc.). To obtain mean measurements with standard deviations, all experiments were carried out using at least three cells.
Glutamate was prepared as a concentrated stock solution ([…]) in water and then diluted in the recording medium to obtain the desired test concentration. Glycine was prepared as a stock solution at 1 M in water. Compounds were prepared as stock solution ([…]) in DMSO and then diluted in the recording medium to obtain the desired test concentration.
As for `CC[C@]1(O)CC[C@@]2(C)C(=CC[C@H]3[C@@H]4CC[C@H]([C@H](C)CCC(O)C(F)(F)F)[C@@]4(C)CC[C@@H]32)C1` (stereo partly drawn) [Compound 2-4], the activation at 10 µM is greater than 100%.

For `CC[C@]1(O)CC[C@@]2(C)[C@@H](CC[C@@H]3[C@@H]2CC[C@]2(C)[C@@H]([C@H](C)CCC(O)C(F)(F)F)CC[C@@H]32)C1` (stereo partly drawn) [Compound 2-5], the activation at 10 µM was 50 to 100%.

As for `CC[C@]1(O)CC[C@@]2(C)C(=CC[C@H]3[C@@H]4CC[C@H]([C@H](C)CC[C@@H](O)C(F)(F)F)[C@@]4(C)CC[C@@H]32)C1` [Compound 2-7], the activation at 10 µM was greater than 100%.

On to `CC[C@]1(O)CC[C@@]2(C)C(=CC[C@H]3[C@@H]4CC[C@H]([C@H](C)CC[C@H](O)C(F)(F)F)[C@@]4(C)CC[C@@H]32)C1` [Compound 2-8], for which the activation at 10 µM lay in the range of 50 to 100%.

For `CC[C@]1(O)CC[C@@]2(C)[C@@H](CC[C@@H]3[C@@H]2CC[C@]2(C)[C@@H]([C@H](C)CC[C@H](O)C(F)(F)F)CC[C@@H]32)C1` [Compound 2-10], the activation at 10 µM fell in the range of 10 to 50%.

Turning to `C[C@H](CCC(C)(O)C(F)(F)F)[C@H]1CC[C@H]2[C@@H]3CC=C4C[C@@](C)(O)CC[C@]4(C)[C@H]3CC[C@]12C` (stereo partly drawn) [Compound 3-2], the activation at 10 µM is greater than 100%.

Regarding `C[C@H](CCC(C)(O)C(F)(F)F)[C@H]1CC[C@H]2[C@@H]3CC[C@H]4C[C@@](C)(O)CC[C@]4(C)[C@H]3CC[C@]12C` (stereo partly drawn) [Compound 3-3], the activation at 10 µM was in the range of 50 to 100%.

With `C[C@H](CC[C@](C)(O)C(F)(F)F)[C@H]1CC[C@H]2[C@@H]3CC=C4C[C@@](C)(O)CC[C@]4(C)[C@H]3CC[C@]12C` [Compound 3-5], the activation at 10 µM lay in the range of 10 to 50%.

With `C[C@H](CC[C@@](C)(O)C(F)(F)F)[C@H]1CC[C@H]2[C@@H]3CC=C4C[C@@](C)(O)CC[C@]4(C)[C@H]3CC[C@]12C` [Compound 3-6], the activation at 10 µM lay in the range of 50 to 100%.

Turning to `C[C@H](CC[C@@](C)(O)C(F)(F)F)[C@H]1CC[C@H]2[C@@H]3CC[C@H]4C[C@@](C)(O)CC[C@]4(C)[C@H]3CC[C@]12C` [Compound 3-7], the activation at 10 µM is 10 to 50%.

With `C[C@H](CC[C@](C)(O)C(F)(F)F)[C@H]1CC[C@H]2[C@@H]3CC[C@H]4C[C@@](C)(O)CC[C@]4(C)[C@H]3CC[C@]12C` [Compound 3-8], the activation at 10 µM fell in the range of 50 to 100%.

As to `CC[C@@](C)(O)CC[C@@H](C)[C@H]1CC[C@H]2[C@@H]3CC[C@H]4C[C@@](C)(O)CC[C@]4(C)[C@H]3CC[C@]12C` [Compound 4-9], the activation at 10 µM was 10 to 50%.

On to `CC[C@](C)(O)CC[C@@H](C)[C@H]1CC[C@H]2[C@@H]3CC[C@H]4C[C@@](C)(O)CC[C@]4(C)[C@H]3CC[C@]12C` [Compound 4-10], for which the activation at 10 µM is 10 to 50%.

`CC[C@@](C)(O)CC[C@@H](C)[C@H]1CC[C@H]2[C@@H]3CC=C4C[C@@](C)(O)CC[C@]4(C)[C@H]3CC[C@]12C` [Compound 4-11]: the activation at 10 µM is greater than 100%.

Consider `CC[C@](C)(O)CC[C@@H](C)[C@H]1CC[C@H]2[C@@H]3CC=C4C[C@@](C)(O)CC[C@]4(C)[C@H]3CC[C@]12C` [Compound 4-12], for which the activation at 10 µM lay within 50 to 100%.

For `CCC[C@](C)(O)CC[C@@H](C)[C@H]1CC[C@H]2[C@@H]3CC=C4C[C@@](C)(O)CC[C@]4(C)[C@H]3CC[C@]12C` [Compound 5-5], the activation at 10 µM was 10 to 50%.

With `CCC[C@@](C)(O)CC[C@@H](C)[C@H]1CC[C@H]2[C@@H]3CC=C4C[C@@](C)(O)CC[C@]4(C)[C@H]3CC[C@]12C` [Compound 5-6], the activation at 10 µM lay in the range of 10 to 50%.

As for `CCC[C@](C)(O)CC[C@@H](C)[C@H]1CC[C@H]2[C@@H]3CC[C@H]4C[C@@](C)(O)CC[C@]4(C)[C@H]3CC[C@]12C` [Compound 5-7], the activation at 10 µM lay in the range of 50 to 100%.

Take `CCC[C@@](C)(O)CC[C@@H](C)[C@H]1CC[C@H]2[C@@H]3CC[C@H]4C[C@@](C)(O)CC[C@]4(C)[C@H]3CC[C@]12C` [Compound 5-8]: the activation at 10 µM lay in the range of 50 to 100%.

Consider `C[C@H](CCC(C)(O)CCCO)[C@H]1CC[C@H]2[C@@H]3CC=C4C[C@@](C)(O)CC[C@]4(C)[C@H]3CC[C@]12C` (stereo partly drawn) [Compound 6-3], for which the activation at 10 µM lay in the range of 50 to 100%.

For `C=CCC(C)(O)CC[C@@H](C)[C@H]1CC[C@H]2[C@@H]3CC[C@H]4C[C@@](C)(O)CC[C@]4(C)[C@H]3CC[C@]12C` (stereo partly drawn) [Compound 6-6], the activation at 10 µM was in the range of 50 to 100%.

`C=CC[C@@](C)(O)CC[C@@H](C)[C@H]1CC[C@H]2[C@@H]3CC=C4C[C@@](C)(O)CC[C@]4(C)[C@H]3CC[C@]12C` [Compound 6-8]: the activation at 10 µM is 10 to 50%.

As to `C[C@H](CC[C@@](C)(O)CCCO)[C@H]1CC[C@H]2[C@@H]3CC=C4C[C@@](C)(O)CC[C@]4(C)[C@H]3CC[C@]12C` [Compound 6-9], the activation at 10 µM lay in the range of 10 to 50%.

With `C=CC[C@](C)(O)CC[C@@H](C)[C@H]1CC[C@H]2[C@@H]3CC[C@H]4C[C@@](C)(O)CC[C@]4(C)[C@H]3CC[C@]12C` [Compound 6-11], the activation at 10 µM was in the range of 10 to 50%.

For `CCCC[C@](C)(O)CC[C@@H](C)[C@H]1CC[C@H]2[C@@H]3CC=C4C[C@@](C)(O)CC[C@]4(C)[C@H]3CC[C@]12C` [Compound 7-4], the activation at 10 µM lay within 50 to 100%.

Consider `CCCC[C@@](C)(O)CC[C@@H](C)[C@H]1CC[C@H]2[C@@H]3CC=C4C[C@@](C)(O)CC[C@]4(C)[C@H]3CC[C@]12C` [Compound 7-5], for which the activation at 10 µM lay in the range of 10 to 50%.

As for `CCCC[C@](C)(O)CC[C@@H](C)[C@H]1CC[C@H]2[C@@H]3CC[C@H]4C[C@@](C)(O)CC[C@]4(C)[C@H]3CC[C@]12C` [Compound 7-6], the activation at 10 µM was greater than 100%.

`CCCC[C@@](C)(O)CC[C@@H](C)[C@H]1CC[C@H]2[C@@H]3CC[C@H]4C[C@@](C)(O)CC[C@]4(C)[C@H]3CC[C@]12C` [Compound 7-7]: the activation at 10 µM was in the range of 10 to 50%.

In the case of `CC(C)[C@@](C)(O)CC[C@@H](C)[C@H]1CC[C@H]2[C@@H]3CC[C@H]4C[C@@](C)(O)CC[C@]4(C)[C@H]3CC[C@]12C` [Compound 8-5], the activation at 10 µM was in the range of 10 to 50%.

In the case of `CC(C)[C@](C)(O)CC[C@@H](C)[C@H]1CC[C@H]2[C@@H]3CC[C@H]4C[C@@](C)(O)CC[C@]4(C)[C@H]3CC[C@]12C` [Compound 8-6], the activation at 10 µM was 10 to 50%.

`CC(C)[C@@](C)(O)CC[C@@H](C)[C@H]1CC[C@H]2[C@@H]3CC=C4C[C@@](C)(O)CC[C@]4(C)[C@H]3CC[C@]12C` [Compound 8-7]: the activation at 10 µM fell in the range of 50 to 100%.

With `CC(C)[C@](C)(O)CC[C@@H](C)[C@H]1CC[C@H]2[C@@H]3CC=C4C[C@@](C)(O)CC[C@]4(C)[C@H]3CC[C@]12C` [Compound 8-8], the activation at 10 µM was greater than 100%.

For the compound `C[C@H](CC[C@@](C)(O)C1CC1)[C@H]1CC[C@H]2[C@@H]3CC=C4C[C@@](C)(O)CC[C@]4(C)[C@H]3CC[C@]12C` [Compound 9-3], the activation at 10 µM lay in the range of 50 to 100%.

In the case of `C[C@H](CC[C@](C)(O)C1CC1)[C@H]1CC[C@H]2[C@@H]3CC=C4C[C@@](C)(O)CC[C@]4(C)[C@H]3CC[C@]12C` [Compound 9-4], the activation at 10 µM was in the range of 50 to 100%.

Take `C[C@H](CCC(C)(O)C1CC1)[C@H]1CC[C@H]2[C@@H]3CC[C@H]4C[C@@](C)(O)CC[C@]4(C)[C@H]3CC[C@]12C` (stereo partly drawn) [Compound 9-6]: the activation at 10 µM lay in the range of 50 to 100%.

As to `C[C@H](CC[C@@](C)(O)C1CC1)[C@H]1CC[C@H]2[C@@H]3CC[C@H]4C[C@@](C)(O)CC[C@]4(C)[C@H]3CC[C@]12C` [Compound 9-7], the activation at 10 µM is 10 to 50%.
